Assay results reported in patent US7144586B2, “Compositions for preventing hormone induced adverse effects” (Lycored Natural Products Industries Ltd., priority 2000, dated 2006).
Entries after “also recorded” stand apart in the source; their conditions may differ.

Assays:
[1] = system: estrogen receptor-positive human breast cancer cell lines; details: approximately 0.1 to 2–3 μM; cited from earlier work
[2] = system: estrogen receptor negative human breast cancer cell lines; details: approximately 0.1 to 2–3 μM; cited from earlier work
[3] = system: ECC-1 endometrial cancer cells; assay: ECC-1 endometrial cancer cell proliferation assay ([3H]thymidine incorporation); type: cell-based, human; details: for genistein-induced cell proliferation: stimulated by genistein at 1 MM (FIG. 4); for cell proliferation ([3H]thymidine incorporation into DNA): 0.4 and 4 μM, after three days (FIG. 1, panel A); for inhibition of cell proliferation: higher, non-physiological concentrations (10 μM), after three days in culture (FIG. 1, panel A); for effect on endometrial cancer cell growth over the concentration range: increasing concentrations, low to high
Experimental: (§1) Tetrahydrofuran (THF) containing 0.25% butylated hydroxytoluene was added to purified carotenoids as an antioxidant. Carotenoids were dissolved in THF at a concentration of 2 mMM and stored at −70 C. Immediately before use, stock solutions were thawed and added to the cell culture medium under nitrogen, followed by vigorous stirring. Precipitates formed were removed by filtration through Millex-HV filter (Millipore). Final carotenoid concentrations in the medium were determined by spectrophotometry after extraction in 2-propanol and n-hexane:dichloronomethane, as in U.S. Pat. No. 5,827,900.
(§2) The human endometrial cancer (estrogen dependent) cell line ECC-1 was developed by Dr. P. G. Satyaswaroop, Pennslyvania State University, Pennsylvania, U.S.A, and generously provided to us by Dr. R. Oregan, Northwestern University, Chicago, Ill., U.S.A. Human mammary cancer cell lines MCF-7 (estrogen dependent) and MDA-231 (hormone independent) were obtained from the American Type Culture Collection (Rockville, Md.).
(§3) Cells were cultured in DMEMM containing penicillin (100 U/ml), streptomycin (0.1 mg/ml)) nystatin (12.5 (g/ml), insulin (0.6 (g/ml), and 10% FCS. Cells were stripped of endogenous steroids according to the procedure of Vignon et al. (1987, Biochem. Biophys. Res. Comm., 146:1502–8) by successive passages in medium without phenol red containing 10% and then 3% of charcoal-stripped FCS. Cells were seeded into 96 multiwell plates (5,000 cells per well) in DMEMM containing 3% of charcoal-stripped FCS. After one day the medium was changed to one containing the solubilized carotenoid or THF alone. The medium was changed daily to ensure a continuous supply of carotenoid.
(§4) After incubation, the number of cells and the rate of cell proliferation were estimated by the incorporation of [^3H]thymidine incorporation into cellular DNA, as described in U.S. Pat. No. 5,827,900. Cell growth was also measured by direct cell counting with a Coulter counter after trypsinization and dilution in Isotone-II (Coulter Electronics, Luton, England). A good correlation was found between the two methods.
ECC-1 cells were incubated with increasing concentrations of the isoflavones genistein and daidzein, the two primary isoflavones in soy products, and with soy extract. Cell proliferation after three days was measured by [^3H]thymidine incorporation into DNA (FIG. 1, panel A).
ECC-1 cells were also incubated with a single high concentration (40 μM) of each of genistein, daidzein and soy extract. Cell proliferation was assayed daily over the course of three days.
(§5) The comparative effects of estradiol and genistein supplementation on the proliferation of the hormone-dependent cell lines MCF-7 mammary cancer and ECC-1 endometrial cancer were examined (FIG. 2).
(§6) Cell cultures stimulated either by genistein or estradiol, as described above, were further supplemented with lycopene and assayed for cell proliferation after three days in culture.
The ECC-1 hormone-dependent cell line was stimulated either by estradiol at 10 nM (FIG. 4, left panel) or by genistein at 1 MM (FIG. 4, panel B) and test cultures were additionally supplemented with various carotenoids.
The hormone-dependent endometrial cancer cell line ECC-1 was stimulated either by estradiol at 10 nM (FIG. 5, left panel) or by genistein at 1 μM (FIG. 5, right panel) and test cultures were additionally supplemented with various concentrations of lycopene. […] The lowest lycopene concentration tested (0.9 μM) is in the physiological range found in human serum.

[4] = system: rodent models (rat colon and oral carcinogenesis); details: dietary administration; cited from earlier work
[5] = system: MCF-7 mammary cancer cells (estrogen dependent); assay: MCF-7 mammary cancer cell proliferation assay ([3H]thymidine incorporation); type: cell-based, human; details: for phytoestrogen-induced cell proliferation: genistein (4 (M))
Experimental: as §1, §2, §3, §4, §5, §6
Thus genistein not only stimulates hormone-dependent cancer cell proliferation, but IGF-I as well as other growth factors further augment this effect.
Cell cultures supplemented as above were further supplemented with lycopene at 3 to 5 μM concentration.

[6] = system: MDA-231 mammary cancer cells (hormone independent); assay: MDA-231 mammary cancer cell proliferation assay ([3H]thymidine incorporation); type: cell-based, human
Experimental: as §1, §2, §3
as §4, with “methods. […]” for “methods.”

[7] = single high concentration (40 μM), after one day of incubation (FIG. 1, panel B)
[8] = high, non-physiological carotenoid concentrations, about one order of magnitude greater than physiological (FIG. 6, panel B)
[9] = lycopene at 3 to 5 μM, IGF-1 30 nM (FIG. 3)
[10] = lycopene at 3 to 5 μM, three days in culture (FIG. 2)

## O=c1c(O)c(-c2ccc(O)cc2)oc2cc(O)cc(O)c12 [kaempferl]
[1]
  cell proliferation: induce cell proliferation
[2]
  cell proliferation: not in estrogen receptor negative

## O=c1oc2cc(O)ccc2c2oc3cc(O)ccc3c12 [counestrol]
[1]
  cell proliferation: induce cell proliferation
[2]
  cell proliferation: not in estrogen receptor negative

## CC1=C(/C=C/C(C)=C/C=C/C(C)=C/C=C/C=C(C)/C=C/C=C(C)/C=C/C2=C(C)CCCC2(C)C)C(C)(C)CCC1 [beta-carotene]
[3]
  genistein-induced cell proliferation: effective inhibitors; also recorded: effectively inhibited

## O=c1c(-c2ccc(O)cc2)coc2cc(O)ccc12 [daidzein, reference compound]
[3]
  cell proliferation ([3H]thymidine incorporation into DNA): significant increase in cell proliferation rate; also recorded: stimulated cell proliferation
  inhibition of cell proliferation: not
  effect on endometrial cancer cell growth over the concentration range: only stimulatory
[3]; [7]
  cell proliferation: significantly increases cell proliferation; also recorded: stimulated cell proliferation

## COc1ccc(-c2coc3cc(O)cc(O)c3c2=O)cc1 [biochanin A]
[1]
  cell proliferation: induce cell proliferation
[2]
  cell proliferation: not in estrogen receptor negative

## CC1=C(/C=C/C(C)=C/C=C/C(C)=C/C=C/C=C(C)/C=C/C=C(C)/C=C/C2=C(C)C(=O)[C@@H](O)CC2(C)C)C(C)(C)C[C@H](O)C1=O [astaxanthin]
[4]
  anti-tumorigenic effects in vivo: anti-tumorigenic effects
[3]
  genistein-induced cell proliferation: effective inhibitors; also recorded: effectively inhibited

## O=c1c(-c2ccc(O)cc2)coc2cc(O)cc(O)c12 [genistein, reference compound]
[1]
  cell proliferation: induce cell proliferation
[2]
  cell proliferation: not in estrogen receptor negative
[5]; genistein plus IGF-1 30 nM, compared to genistein only (FIG. 3, panel A)
  stimulatory effect of genistein in the presence of IGF-I: significantly increases the cell proliferation rate; also recorded: further augmented
[5]; stimulating at low, inhibiting at high concentrations (FIG. 2, panel A)
  effect on proliferation over the concentration range: biphasic effects on proliferation
[3]; 40 μM, by the second day in culture (FIG. 1, panel B)
  cell proliferation: inhibitory effects
[3]
  cell proliferation ([3H]thymidine incorporation into DNA): significant increase in cell proliferation rate; also recorded: stimulated cell proliferation
  inhibition of cell proliferation: inhibited cell proliferation
  effect on endometrial cancer cell growth over the concentration range: biphasic effects on proliferation
[3]; [7]
  cell proliferation: significantly increases cell proliferation; also recorded: stimulated cell proliferation

## CC(C)=CCC/C(C)=C/CC/C(C)=C/CC/C(C)=C/C=C/C=C(\C)CC/C=C(\C)CC/C=C(\C)CCC=C(C)C [phytoene]
[5]; [8]
  phytoestrogen-induced cell proliferation: effective in significantly inhibiting
[3]
  genistein-induced cell proliferation: effective inhibitors

## O=c1cc(-c2ccc(O)c(O)c2)oc2cc(O)cc(O)c12 [luiolin]
[1]
  cell proliferation: induce cell proliferation
[2]
  cell proliferation: not in estrogen receptor negative

## IGF-1: Human recombinant IGF-1 purchased from GroPep
[6]; IGF-1 30 nM (FIG. 3, panel B)
  cell growth: significantly stimulates cell growth
[5]; IGF-1 30 nM (FIG. 3, panel A)
  cell growth: significantly stimulates cell growth

## CC(C)=CCC/C(C)=C/C=C/C(C)=C/C=C/C(C)=C/C=C/C=C(C)/C=C/C=C(C)/C=C/C=C(\C)CCC=C(C)C [lycopene]
[6]; [9]
  IGF stimulation of cell proliferation: inhibits IGF stimulation
  cell proliferation relative to controls: reduced to levels less than that of controls
[5]; [8]
  phytoestrogen-induced cell proliferation: effective in significantly inhibiting
[5]; low (physiological) concentrations: lycopene 0.4 μM, phytoene and phytofluene mixture 6 μM (FIG. 6, panel A)
  phytoestrogen-induced cell proliferation: do not significantly affect
[5]; [10]
  basal growth: significantly inhibited
  estradiol-induced growth: significantly inhibited
[5]; [9]
  IGF stimulation of cell proliferation (IGF-1 and genistein): inhibits the cell proliferation; also recorded: inhibits IGF stimulation
[5]; lycopene at 3 to 5 MM, three days in culture (FIG. 2)
  genistein-induced growth: substantially inhibited; also recorded: significantly inhibited
[3]; estradiol at 10 nM, various lycopene concentrations, lowest 0.9 μM (FIG. 5)
  estradiol-induced cell proliferation, dose dependence: inhibits, in a dose dependent manner; also recorded: effective in inhibiting
[3]; genistein at 1 μM, various lycopene concentrations, lowest 0.9 μM (FIG. 5)
  genistein-induced cell proliferation, dose dependence: inhibits, in a dose dependent manner; also recorded: effective in inhibiting
[3]; [10]
  basal growth: significantly inhibited
  estradiol-induced growth: significantly inhibited
  genistein-induced growth: substantially inhibited; also recorded: significantly inhibited
[3]
  genistein-induced cell proliferation: effective inhibitors; also recorded: effectively inhibited
